# Experimental data from patent US20230086007A1, “USE OF DENATONIUM BENZOATE AS A SEED TREATMENT FOR CROPS AS BIRD AND/OR INSECT REPELLENT” (KWS SAAT SE & Co. KGaA, priority 2020, published 2023).
# Values joined by “and” are separate entries in the source; they are usually repeats but may differ in a detail not shown here. Equal values may be shown once. “Also recorded” adds a separate entry of the source.
# How the values were obtained:
# crows [1] = experiment: Field trials on efficacy as a bird repellent, corn seed, plant stand counts; assay type: in vivo, Corvus; details: 0.4 g/50.000 seeds with Redigo M or Maxim XL, 0.8 g/50.000 seeds stand-alone, plant stand counts 3 weeks after emergence, listed as denatonium benzoate
# Source text: To evaluate the efficacy of different substances as a bird repellent, 25 locations throughout Europe have been identified with a potentially high pressure of bird damage. 17 different substances (DSM RD9103 BRP, Chili extract, Black Cumin oil, Yucca extract, Mentha pulegium extract, Aluminium-Ammonium-sulfate, Hops extract, fat encapsulated plant extracts, alginate encapsulated plant extracts, Tefluthrin, Thiram, Ziram, Methiocarb, yellow colour substance, denatonium benzoate, SatecWFO20, Redigo M, Maxim XL) have been chosen to evaluate differences on feeding behavior of crows. Three chemical references have been included in the trial: Mesurol liquid (Active substance Methiocarb), Korit (Active Substance Ziram) and TMTD (Active Substance Thiram). Mesurol liquid (Methiocarb) was the standard bird repellent in the past, with a European expiry date of the 3rd of April 2020. TMTD (Thiram) can be used until 30th of January 2020. Korit (Ziram) expires in 2021.
# Denatonium benzoate has been tested in 2 different concentrations: 0.4 g/50.000 seeds in combination with standard fungicides Redigo M and Maxim XL and 0.8 g/50.000 seeds as a stand-alone. […]
# 3 weeks after emergence, 9 locations with bird damage have been identified. Plant stand counts have been assessed and summarized.
# corn seeds = experiment: Phytotoxicity: germination rate (KF) of treated corn seeds; details: for ΔKF: vs no Bitrex
# Protocol: In order to evaluate the phytotoxicity of different corn seed treatments, safety tests were conducted. Germination rates of corn seeds treated with various concentrations of denatonium benzoate (Bitrex®) [in g per unit, where 1 unit is 50.000 seeds] were counted after five days at 25° C. Cold test germination rates (CT) were counted after 7 days at 10° C. and 5 days at 25° C. The treatments were compared to untreated seeds.
# KF=germination rates counted after 5 days at 25° C. and CT=cold test germination rates counted after 7 days at 10° C. and 5 days at 25° C.
# [2] = LC-MS-MS determination of Bitrex in leaf tissue of oilseed rape seedlings; assay type: in vivo, Brassica napus
# Source text: Further experiments on system uptake of Bitrex have been conducted also on oilseed rape (Brassica napus). Seeds of Brassica napus have been treated with concentration of Bitrex from 0.15 g/unit to 75 g/unit. Seeds have been sown and leaf samples have been taken 6 days after emergence and 22 days after emergence. By means of Liquid Chromatography with tandem mass spectrometry (LC-MS-MS) as described above Bitrex amount in leaf tissue has been determined with 4 repetition per Bitrex concentration. Leave samples have been prepared as follows: Leaf material has been harvested, cut in small pieces and put in 3-5 ml ethanol. After 45 min vortexing, centrifuging and taking aliquot of 1 ml for further analysis.
# crows [3] = details: wheat seed treatment; cited from earlier work
# [4] = corn Amavit, chemical no, Bitrex 0.2 g/u
# [5] = corn Amavit, chemical no, Bitrex 0.5 g/u
# [6] = corn Amavit, chemical no, Bitrex 1.0 g/u
# [7] = corn Amavit, chemical no, Bitrex 2.0 g/u
# [8] = corn Amavit, chemical no, Bitrex 5.0 g/u
# [9] = corn Amavit, with MaximXL, Bitrex 0.2 g/u
# [10] = corn Amavit, with MaximXL, Bitrex 0.5 g/u
# [11] = corn Amavit, with MaximXL, Bitrex 1.0 g/u
# [12] = corn Amavit, with MaximXL, Bitrex 2.0 g/u
# [13] = corn Amavit, with MaximXL, Bitrex 5.0 g/u
# [14] = corn Amavit, with RedigoM, Bitrex 0.2 g/u
# [15] = corn Amavit, with RedigoM, Bitrex 0.5 g/u
# [16] = corn Amavit, with RedigoM, Bitrex 1.0 g/u
# [17] = corn Amavit, with RedigoM, Bitrex 2.0 g/u
# [18] = corn Amavit, with RedigoM, Bitrex 5.0 g/u
# [19] = corn KXB6432, chemical no, Bitrex 0.2 g/u
# [20] = corn KXB6432, chemical no, Bitrex 0.5 g/u
# [21] = corn KXB6432, chemical no, Bitrex 1.0 g/u
# [22] = corn KXB6432, chemical no, Bitrex 2.0 g/u
# [23] = corn KXB6432, chemical no, Bitrex 5.0 g/u
# [24] = corn KXB6432, with MaximXL, Bitrex 0.2 g/u
# [25] = corn KXB6432, with MaximXL, Bitrex 0.5 g/u
# [26] = corn KXB6432, with MaximXL, Bitrex 1.0 g/u
# [27] = corn KXB6432, with MaximXL, Bitrex 2.0 g/u
# [28] = corn KXB6432, with MaximXL, Bitrex 5.0 g/u
# [29] = corn KXB6432, with RedigoM, Bitrex 0.2 g/u
# [30] = corn KXB6432, with RedigoM, Bitrex 0.5 g/u
# [31] = corn KXB6432, with RedigoM, Bitrex 1.0 g/u
# [32] = corn KXB6432, with RedigoM, Bitrex 2.0 g/u
# [33] = corn KXB6432, with RedigoM, Bitrex 5.0 g/u
# [34] = ø of varieties and chemicals, Bitrex 0.2 g/u
# [35] = ø of varieties and chemicals, Bitrex 0.5 g/u
# [36] = ø of varieties and chemicals, Bitrex 1.0 g/u
# [37] = ø of varieties and chemicals, Bitrex 2.0 g/u
# [38] = ø of varieties and chemicals, Bitrex 5.0 g/u
# [39] = ø of varieties, chemical no, Bitrex 0.2 g/u
# [40] = ø of varieties, chemical no, Bitrex 0.5 g/u
# [41] = ø of varieties, chemical no, Bitrex 1.0 g/u
# [42] = ø of varieties, chemical no, Bitrex 2.0 g/u
# [43] = ø of varieties, chemical no, Bitrex 5.0 g/u
# [44] = ø of varieties, with MaximXL, Bitrex 0.2 g/u
# [45] = ø of varieties, with MaximXL, Bitrex 0.5 g/u
# [46] = ø of varieties, with MaximXL, Bitrex 1.0 g/u
# [47] = ø of varieties, with MaximXL, Bitrex 2.0 g/u
# [48] = ø of varieties, with MaximXL, Bitrex 5.0 g/u
# [49] = ø of varieties, with RedigoM, Bitrex 0.2 g/u
# [50] = ø of varieties, with RedigoM, Bitrex 0.5 g/u
# [51] = ø of varieties, with RedigoM, Bitrex 1.0 g/u
# [52] = ø of varieties, with RedigoM, Bitrex 2.0 g/u
# [53] = ø of varieties, with RedigoM, Bitrex 5.0 g/u
smiles,measurement,setting,value
"CC[N+](CC)(CC(=O)Nc1c(C)cccc1C)Cc1ccccc1.O=C([O-])c1ccccc1 [Bitrex, N-Benzyl-2-(2,6-dimethylanilino)-N, N-diethyl-2-oxoethan-1-aminium benzoate]",efficiency as corvid repellent for corn,crows [1],"excellent effect; also recorded: comparable or even better than the best bird repellents like Thiram, Korit and Mesurol"
same,"KF germination rate, 5 days at 25° C.",corn seeds; [4],98.0%
same,"KF germination rate, 5 days at 25° C.",corn seeds; [5],96.5%
same,"KF germination rate, 5 days at 25° C.",corn seeds; [6],97.5%
same,"KF germination rate, 5 days at 25° C.",corn seeds; [7],97.0%
same,"KF germination rate, 5 days at 25° C.",corn seeds; [8],98.0%
same,"KF germination rate, 5 days at 25° C.",corn seeds; [9],98.0%
same,"KF germination rate, 5 days at 25° C.",corn seeds; [10],98.0%
same,"KF germination rate, 5 days at 25° C.",corn seeds; [11],96.5%
same,"KF germination rate, 5 days at 25° C.",corn seeds; [12],95.5%
same,"KF germination rate, 5 days at 25° C.",corn seeds; [13],97.5%
same,"KF germination rate, 5 days at 25° C.",corn seeds; [14],100.0%
same,"KF germination rate, 5 days at 25° C.",corn seeds; [15],97.5%
same,"KF germination rate, 5 days at 25° C.",corn seeds; [16],96.0%
same,"KF germination rate, 5 days at 25° C.",corn seeds; [17],96.5%
same,"KF germination rate, 5 days at 25° C.",corn seeds; [18],99.5%
same,"KF germination rate, 5 days at 25° C.",corn seeds; [19],92.5%
same,"KF germination rate, 5 days at 25° C.",corn seeds; [20],96.5%
same,"KF germination rate, 5 days at 25° C.",corn seeds; [21],96.5%
same,"KF germination rate, 5 days at 25° C.",corn seeds; [22],96.0%
same,"KF germination rate, 5 days at 25° C.",corn seeds; [23],95.5%
same,"KF germination rate, 5 days at 25° C.",corn seeds; [24],98.5%
same,"KF germination rate, 5 days at 25° C.",corn seeds; [25],99.0%
same,"KF germination rate, 5 days at 25° C.",corn seeds; [26],97.5%
same,"KF germination rate, 5 days at 25° C.",corn seeds; [27],98.0%
same,"KF germination rate, 5 days at 25° C.",corn seeds; [28],97.5%
same,"KF germination rate, 5 days at 25° C.",corn seeds; [29],94.5%
same,"KF germination rate, 5 days at 25° C.",corn seeds; [30],95.5%
same,"KF germination rate, 5 days at 25° C.",corn seeds; [31],96.0%
same,"KF germination rate, 5 days at 25° C.",corn seeds; [32],95.5%
same,"KF germination rate, 5 days at 25° C.",corn seeds; [33],97.0%
same,ΔKF,corn seeds; [4],0.0%
same,ΔKF,corn seeds; [5],−1.5%
same,ΔKF,corn seeds; [6],−0.5%
same,ΔKF,corn seeds; [7],−1.0%
same,ΔKF,corn seeds; [8],0.0%
same,ΔKF,corn seeds; [9],1.5%
same,ΔKF,corn seeds; [10],1.5%
same,ΔKF,corn seeds; [11],0.0%
same,ΔKF,corn seeds; [12],−1.0%
same,ΔKF,corn seeds; [13],1.0%
same,ΔKF,corn seeds; [14],2.0%
same,ΔKF,corn seeds; [15],−0.5%
same,ΔKF,corn seeds; [16],−2.0%
same,ΔKF,corn seeds; [17],−1.5%
same,ΔKF,corn seeds; [18],1.5%
same,ΔKF,corn seeds; [19],−2.0%
same,ΔKF,corn seeds; [20],2.0%
same,ΔKF,corn seeds; [21],2.0%
same,ΔKF,corn seeds; [22],1.5%
same,ΔKF,corn seeds; [23],1.0%
same,ΔKF,corn seeds; [24],0.0%
same,ΔKF,corn seeds; [25],0.5%
same,ΔKF,corn seeds; [26],−1.0%
same,ΔKF,corn seeds; [27],−0.5%
same,ΔKF,corn seeds; [28],−1.0%
same,ΔKF,corn seeds; [29],0.0%
same,ΔKF,corn seeds; [30],1.0%
same,ΔKF,corn seeds; [31],1.5%
same,ΔKF,corn seeds; [32],1.0%
same,ΔKF,corn seeds; [33],2.5%
same,ΔKF,corn seeds; [34],0.3%
same,ΔKF,corn seeds; [35],0.5%
same,ΔKF,corn seeds; [36],0.0%
same,ΔKF,corn seeds; [37],−0.2%
same,ΔKF,corn seeds; [38],0.8%
same,ΔKF,corn seeds; [39],−1.0%
same,ΔKF,corn seeds; [40],0.3%
same,ΔKF,corn seeds; [41],0.8%
same,ΔKF,corn seeds; [42],0.3%
same,ΔKF,corn seeds; [43],0.5%
same,ΔKF,corn seeds; [44],0.7%
same,ΔKF,corn seeds; [45],1.0%
same,ΔKF,corn seeds; [46],−0.5%
same,ΔKF,corn seeds; [47],−0.7%
same,ΔKF,corn seeds; [48],0.0%
same,ΔKF,corn seeds; [49],1.0%
same,ΔKF,corn seeds; [50],0.3%
same,ΔKF,corn seeds; [51],−0.2%
same,ΔKF,corn seeds; [52],−0.2%
same,ΔKF,corn seeds; [53],2.0%
same,"KF germination rate, 5 days at 25° C.",corn seeds; [34],96.9%
same,"KF germination rate, 5 days at 25° C.",corn seeds; [35],97.2%
same,"KF germination rate, 5 days at 25° C.",corn seeds; [36],96.7%
same,"KF germination rate, 5 days at 25° C.",corn seeds; [37],96.4%
same,"KF germination rate, 5 days at 25° C.",corn seeds; [38],97.5%
same,"KF germination rate, 5 days at 25° C.",corn seeds; [39],95.3%
same,"KF germination rate, 5 days at 25° C.",corn seeds; [40],96.5%
same,"KF germination rate, 5 days at 25° C.",corn seeds; [41],97.0%
same,"KF germination rate, 5 days at 25° C.",corn seeds; [42],96.5%
same,"KF germination rate, 5 days at 25° C.",corn seeds; [43],96.8%
same,"KF germination rate, 5 days at 25° C.",corn seeds; [44],98.3%
same,"KF germination rate, 5 days at 25° C.",corn seeds; [45],98.5%
same,"KF germination rate, 5 days at 25° C.",corn seeds; [46],97.0%
same,"KF germination rate, 5 days at 25° C.",corn seeds; [47],96.8%
same,"KF germination rate, 5 days at 25° C.",corn seeds; [48],97.5%
same,"KF germination rate, 5 days at 25° C.",corn seeds; [49],97.3%
same,"KF germination rate, 5 days at 25° C.",corn seeds; [50],96.5%
same,"KF germination rate, 5 days at 25° C.",corn seeds; [51],96.0%
same,"KF germination rate, 5 days at 25° C.",corn seeds; [52],96.0%
same,"KF germination rate, 5 days at 25° C.",corn seeds; [53],98.3%
same,Bitrex concentation 22 days after emergence,"[2]; oilseed rape leaf, Bitrex 0.15 g/unit, repetitions 1-4",11.03 ng/g and 10.65 ng/g and 5.58 ng/g and 7.75 ng/g
same,Bitrex concentation 6 days after emergence,"[2]; oilseed rape leaf, Bitrex 7.5 g/unit, repetitions 1-4",354.65 ng/g and 194.60 ng/g and 266.85 ng/g and 251.41 ng/g
same,Bitrex in leaf tissue after 22 days,"[2]; oilseed rape, all applications 0.15-75 g/unit",still detectable but at a low amount
same,corvid repellent effect in wheat,crows [3],only provided a modest improvement
